Key:
GltPh-R397C = biological target: T1, GltPh-R397C (Pyrococcus horikoshii, UniProt O59010, R397C); assay: biochemical; type: binding; conditions: for Apparent number of Na+ ions coupled to binding (n): GltPh-R397C, global fit of isotherms at 10–100 mM Na+, 25 °C
T1 construct: hexa-His (N, cleaved yes); made in house; host or cells: Escherichia coli Top10 (pBAD)
Description: Fluorescence-based binding assays were performed by titrating purified protein (50 μg per ml) in 20 mM HEPES/Tris, pH 7.4, 200 mM choline chloride, 0.4 mM n-dodecyl^−β-D-maltopyranoside, 200 nM styryl fluorescent dye RH421 (Invitrogen, Inc., Grand Island, NY) with NaCl, L-ser, L-cys or benzylcysteine at 25 °C[51]. The RH421 dye was excited at 532 nm, and the fluorescence was collected at 628 nm using a QuantaMaster (Photon International Technology, Inc., Edison, NJ). Fluorescence emissions were measured after at least 10 min equilibration to ensure a stabilised signal. The data were analysed using GraphPad Prism version 6.0 for Mac (GraphPad Software, La Jolla California USA). Fractional fluorescence changes were normalised to maximal fluorescence changes, then plotted as a function of ligand concentration and fitted to the Hill equation. All the experiments were performed at least in triplicate.
Analysis of ligand binding data. The voltage sensitive amphipathic dye RH421 reports on Na+ binding to purified GltPh protein in detergent3. RH421 was used to follow Na+ binding to GltPh‐R397C protein either alone or in reactions coupled to binding of amino acids. […]
Coupled ions and amino acid binding was probed by titrating amino acids to the GltPh‐R397C protein in the presence of 10 – 100 mM Na+ ions. The obtained isotherms were analyzed to estimate an apparent number of Na+ ions coupled to binding of the amino acids.
Raw data were first normalized by the initial fluorescence of RH421 and plotted as fraction of fluorescence change (Supplementary […]
total amount of dye and detergent in the assay buffer.
To take into account significant amino acid‐independent Na+ binding, the sets of binding isotherms obtained at variable Na+ concentrations were fitted globally to a simplified binding equation: […]
KD,a is the combined dissociation constant for coupled Na+ and ligand binding and n is the apparent number of coupled ions. Fraction of the protein bound to either Na+ ions alone or to the ions and the […]
Fraction of the protein already bound to Na+ ions before ligand addition is: […]
Fractional fluorescence change Y is fitted to an equation: […]
where Y0 and ∆Y are, respectively, baseline and the signal difference between fully bound and apo […]
KD,a and n were fitted globally for each ligand. Y0 and ∆Y were adjusted for each isotherm independently. […]
individual isotherm to a standard Hill equation, plotted the apparent dissociation constants as functions of Na+ concentrations and compared the values to those predicted using the parameters from the global fits (Supplementary Figure 8).

GltPh-G396S/R397C = biological target: T2, GltPh-G396S/R397C (Pyrococcus horikoshii, UniProt O59010, G396S/R397C); assay: biochemical; type: biochemical
T2 construct: hexa-His (N, cleaved yes); made in house; host or cells: Escherichia coli Top10 (pBAD)
Description: Mutant and wild-type GltPh with an amino-terminal hexa-His tag were expressed in Escherichia coli Top10 cells (Invitrogen), which were grown in Luria broth medium at 37 °C. Ampicillin was added to a final concentration of 100 μg per ml. To induce expression of GltPh, 0.1% L-arabinose was added when cells reached an optical density of 0.6 at 660 nm, and cells were harvested 4 h post induction. Membranes were isolated, and then solubilised with n-dodecyl-β-D-maltopyranoside (C12M, Anatrace). Histidine containing proteins were purified using Ni^2+−nitrilotriacetic acid resin (Qiagen). The histidine tag was subsequently removed from GltPh by digestion with thrombin (10 U per mg protein) and the protein further purified on a Superdex 200 size exclusion column, where the detergent was exchanged to n-decyl-β-D-maltopyranoside (C10M, Anatrace).
Pure protein was reconstituted into liposomes composed of 75% E. coli Polar Lipid Extract and 25% 1-palmitoyl-2-oleoyl-sn-glycero-3 ^−phopshocholine (Avanti Polar Lipids). Lipids were mixed, dried under nitrogen and resuspended in internal buffer (100 mM KCl, 20 mM HEPES-Tris pH 7.5) using brief sonication (Laboratory Supplies Co.). The lipid suspension was frozen in liquid nitrogen and thawed at room temperature several times. Liposomes were formed by extrusion through 400 nm polycarbonate membranes (Avanti Polar Lipids) and were treated with Triton X-100 at a 0.5:1 (w/w) detergent to lipid ratio prior to the addition of protein at 0.25 μg protein per mg lipid. The protein/lipid mixture was left at room temperature for 30 min before detergent was removed using SM2 Biobeads (BioRad). The mixture was then incubated with gentle agitation, with four consecutive batches of Biobeads (80 mg per ml). Proteoliposomes were concentrated by centrifugation at 150,000 g for 30 min, resuspended at 100 mg lipid per ml and either used immediately or flash-frozen in liquid nitrogen and stored at −80 °C.
Mutant and wild-type GltPh-mediated transport of radiolabelled substrate was assayed by diluting proteoliposomes (100 mg lipid per ml) 133-fold into uptake buffer (100 mM NaCl, 20 mM HEPES-Tris pH 7.5, 1 μM valinomycin, 100 nM–1 µM L-[^3H]substrate) pre-warmed to 30 °C. At each time point, a 200 µl aliquot was removed and diluted 10-fold into ice-cold quench buffer (100 mM LiCl, 20 mM HEPES-Tris pH 7.5), followed by immediate filtration over nitrocellulose filters (0.22 μm pore size, Millipore). The filters were washed with ice-cold quench buffer and assayed for radioactivity using a Trilux beta counter (PerkinElmer). To establish substrate concentration–response curves, extraliposomal L-[^3H]substrate was varied between 500 nM and 100 µM, maintaining NaCl concentrations at 300 mM. For inhibitor concentration–response curves, for wild-type GltPh 100 nM L-[^3H]aspartate, and for mutant GltPh 1 µM L-[^3H]serine, was co-applied with varying inhibitor concentrations. Background levels of uptake were measured by diluting proteoliposomes into internal buffer (100 mM KCl, 20 mM HEPES-Tris pH 7.5) containing 1 µM of valinomycin and the indicated concentrations of L-[^3H]substrate.

T2 sequence (O59010 whole entry G396S/R397C): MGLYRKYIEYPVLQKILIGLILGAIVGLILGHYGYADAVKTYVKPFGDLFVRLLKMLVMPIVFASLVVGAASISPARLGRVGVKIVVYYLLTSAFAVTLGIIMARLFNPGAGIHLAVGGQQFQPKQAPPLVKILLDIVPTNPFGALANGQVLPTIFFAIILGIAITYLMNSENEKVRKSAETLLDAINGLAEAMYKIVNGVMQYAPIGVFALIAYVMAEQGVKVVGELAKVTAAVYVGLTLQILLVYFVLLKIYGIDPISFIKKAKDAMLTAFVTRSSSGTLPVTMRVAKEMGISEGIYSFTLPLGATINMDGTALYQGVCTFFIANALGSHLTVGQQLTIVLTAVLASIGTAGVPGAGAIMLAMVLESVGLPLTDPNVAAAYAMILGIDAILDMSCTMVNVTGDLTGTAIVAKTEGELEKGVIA
T1 sequence (O59010 whole entry R397C): as the sequence (O59010 whole entry G396S/R397C) above, with S396G counted along it

| SMILES | Kd (GltPh-R397C) | Apparent number of Na+ ions coupled to binding (n) (GltPh-R397C) | Transport of radiolabelled substrate into proteoliposomes (in words) (GltPh-G396S/R397C; GltPh-G396S/R397C, 100 nM L-[3H]aspartate, 1 µM L-[3H]glutamine, Na+ gradient, pH 7.5) | IC50 for inhibition of L-[3H]serine transport (GltPh-G396S/R397C; GltPh-G396S/R397C, 1 µM L-[3H]serine) | Reduction of L-[3H]serine transport by unlabelled competitor (in words) (GltPh-G396S/R397C; GltPh-R397C/G396S, 10 µM L-[3H]serine, 100-fold excess unlabelled amino acid) | EC50 (GltPh-G396S/R397C) |
| --- | --- | --- | --- | --- | --- | --- |
| NC(=O)CC[C@H](N)C(=O)O [L-glutamine] | 1800 ± 400 µM | 1.1 ± 0.04 | does not effectively transport | – | – | – |
| N[C@@H](CCC(=O)Nc1ccc([N+](=O)[O-])cc1)C(=O)O [GPNA, glutamyl-p-nitroanilide] | – | – | – | poor inhibitor | – | – |
| N[C@@H](CS)C(=O)O [L-cysteine] | 31 ± 3 µM | 1.5 ± 0.04 | – | – | to a similar extent | – |
| N[C@@H](CO)C(=O)O [L-serine] | 9 ± 1 µM | 1.7 ± 0.04 | – | – | – | 15 ± 2 µM |
